Results published in US10670605B2, “Cysteine reactive probes and uses thereof” (The Scripps Research Institute, priority 2015, dated 2020).
Each block holds one compound with its values, some of them ahead of it.

Legend:
[1] = target: EP300 C1738 (Q09472) (Homo sapiens, UniProt Q09472); assay: Competitive isoTOP-ABPP, cell lysates; type: binding; conditions: for isoTOP-ABPP reactivity profile ratio, Q09472_C1738: 500 μm, in-vitro_ramos_231
[2] = target: T1, CASP2 C370 (P42575) (Homo sapiens, UniProt P42575); assay: Competitive isoTOP-ABPP, cell lysates; type: binding; conditions: for isoTOP-ABPP reactivity ratio, P42575_C370: 500 μm, in-vitro_ramos
T1 sequence (P42575 1-452): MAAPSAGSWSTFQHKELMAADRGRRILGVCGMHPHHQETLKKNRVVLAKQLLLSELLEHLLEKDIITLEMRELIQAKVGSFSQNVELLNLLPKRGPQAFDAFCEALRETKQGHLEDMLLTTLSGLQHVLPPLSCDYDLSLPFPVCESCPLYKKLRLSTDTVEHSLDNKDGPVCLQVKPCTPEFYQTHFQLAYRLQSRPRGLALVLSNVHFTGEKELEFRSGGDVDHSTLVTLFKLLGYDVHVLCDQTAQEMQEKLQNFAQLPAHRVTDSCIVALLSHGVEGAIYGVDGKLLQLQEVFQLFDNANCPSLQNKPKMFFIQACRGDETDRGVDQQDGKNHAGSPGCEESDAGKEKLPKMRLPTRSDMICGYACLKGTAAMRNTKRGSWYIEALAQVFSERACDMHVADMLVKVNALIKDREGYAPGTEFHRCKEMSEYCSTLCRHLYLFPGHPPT

[3] = target: T2, UBA7 C599 (P41226) (Homo sapiens, UniProt P41226); assay: Competitive isoTOP-ABPP, cell lysates; type: binding
T2 sequence (P41226 1-1012): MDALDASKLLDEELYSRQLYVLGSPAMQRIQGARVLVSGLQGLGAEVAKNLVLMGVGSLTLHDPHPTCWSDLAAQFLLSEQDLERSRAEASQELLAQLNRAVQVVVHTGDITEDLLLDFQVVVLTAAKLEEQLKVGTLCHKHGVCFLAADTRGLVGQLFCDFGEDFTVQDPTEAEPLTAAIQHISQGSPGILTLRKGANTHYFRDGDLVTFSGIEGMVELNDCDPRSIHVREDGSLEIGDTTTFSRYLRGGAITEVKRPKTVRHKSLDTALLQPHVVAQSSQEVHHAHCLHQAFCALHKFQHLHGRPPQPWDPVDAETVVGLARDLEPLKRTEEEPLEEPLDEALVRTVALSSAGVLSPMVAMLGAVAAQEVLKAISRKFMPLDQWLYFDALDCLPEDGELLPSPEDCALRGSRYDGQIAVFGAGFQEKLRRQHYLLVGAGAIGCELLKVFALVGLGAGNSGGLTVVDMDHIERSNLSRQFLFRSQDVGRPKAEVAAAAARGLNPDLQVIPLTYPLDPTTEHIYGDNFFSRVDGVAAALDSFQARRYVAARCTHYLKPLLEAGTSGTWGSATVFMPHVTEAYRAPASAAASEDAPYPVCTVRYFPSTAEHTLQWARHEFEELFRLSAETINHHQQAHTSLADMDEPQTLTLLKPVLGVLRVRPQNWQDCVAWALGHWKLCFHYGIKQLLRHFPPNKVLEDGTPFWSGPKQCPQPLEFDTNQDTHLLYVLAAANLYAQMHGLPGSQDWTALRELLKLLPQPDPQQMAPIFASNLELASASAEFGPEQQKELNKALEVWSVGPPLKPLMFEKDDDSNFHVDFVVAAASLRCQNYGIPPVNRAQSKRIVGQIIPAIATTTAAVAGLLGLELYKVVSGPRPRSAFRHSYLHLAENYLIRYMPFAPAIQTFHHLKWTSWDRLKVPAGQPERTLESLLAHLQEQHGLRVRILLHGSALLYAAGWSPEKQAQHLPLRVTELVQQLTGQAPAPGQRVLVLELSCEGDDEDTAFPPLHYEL

[4] = target: O14933 C98 (Homo sapiens, UniProt O14933); assay: Competitive isoTOP-ABPP, cell lysates; type: binding; conditions: 500 μM, invitro, ramos
Chain of O14933 C98 (O14933 whole entry): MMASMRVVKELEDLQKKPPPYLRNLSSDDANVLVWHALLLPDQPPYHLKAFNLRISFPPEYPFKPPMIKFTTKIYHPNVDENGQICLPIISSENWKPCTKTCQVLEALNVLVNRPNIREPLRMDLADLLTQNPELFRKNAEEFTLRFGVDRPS

[5] = target: O114933_C98 (Homo sapiens, UniProt O14933); assay: Competitive isoTOP-ABPP, cell lysates; type: binding
Chain of O114933_C98 (O14933 whole entry, the tested form may be a part): as the sequence (O14933 whole entry) above

[6] = target: cysteines in MDA-MB-231 and Ramos cells (Homo sapiens, UniProt Q8N999); assay: Competitive isoTOP-ABPP in situ (fragment-treated cells); type: cell-based; conditions: 200 μM, insitu, 231
Chain of cysteines in MDA-MB-231 and Ramos cells (Q8N999 whole entry, the tested form may be a part): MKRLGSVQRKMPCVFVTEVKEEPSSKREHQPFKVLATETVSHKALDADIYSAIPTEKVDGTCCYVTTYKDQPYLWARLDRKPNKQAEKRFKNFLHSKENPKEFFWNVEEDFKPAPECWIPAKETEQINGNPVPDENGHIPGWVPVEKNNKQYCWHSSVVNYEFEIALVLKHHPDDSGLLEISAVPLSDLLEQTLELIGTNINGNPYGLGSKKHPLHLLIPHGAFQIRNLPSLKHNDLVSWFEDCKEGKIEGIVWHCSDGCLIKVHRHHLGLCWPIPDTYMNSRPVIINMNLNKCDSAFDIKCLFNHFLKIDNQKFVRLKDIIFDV

[7] = target: O00541_C272 (Homo sapiens, UniProt O00541); assay: Competitive isoTOP-ABPP, cell lysates; type: binding; conditions: 500 μm
Chain of O00541_C272 (O00541 whole entry, looked up): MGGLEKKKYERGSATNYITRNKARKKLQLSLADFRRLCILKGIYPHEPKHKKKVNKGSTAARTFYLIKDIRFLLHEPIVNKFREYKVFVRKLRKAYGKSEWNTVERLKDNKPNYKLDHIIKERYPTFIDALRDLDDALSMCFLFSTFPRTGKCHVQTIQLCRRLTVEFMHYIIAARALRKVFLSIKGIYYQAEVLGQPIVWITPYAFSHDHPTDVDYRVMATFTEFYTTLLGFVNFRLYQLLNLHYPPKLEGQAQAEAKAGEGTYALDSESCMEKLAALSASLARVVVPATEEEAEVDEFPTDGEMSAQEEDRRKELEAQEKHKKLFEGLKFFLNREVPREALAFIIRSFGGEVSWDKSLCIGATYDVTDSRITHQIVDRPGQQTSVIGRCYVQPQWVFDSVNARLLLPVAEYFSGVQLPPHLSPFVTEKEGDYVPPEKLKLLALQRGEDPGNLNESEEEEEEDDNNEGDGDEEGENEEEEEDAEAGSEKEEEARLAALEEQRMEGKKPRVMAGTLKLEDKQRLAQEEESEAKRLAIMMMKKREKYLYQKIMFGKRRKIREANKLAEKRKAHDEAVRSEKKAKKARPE

Chain of EP300 C1738 (Q09472) (Q09472 whole entry): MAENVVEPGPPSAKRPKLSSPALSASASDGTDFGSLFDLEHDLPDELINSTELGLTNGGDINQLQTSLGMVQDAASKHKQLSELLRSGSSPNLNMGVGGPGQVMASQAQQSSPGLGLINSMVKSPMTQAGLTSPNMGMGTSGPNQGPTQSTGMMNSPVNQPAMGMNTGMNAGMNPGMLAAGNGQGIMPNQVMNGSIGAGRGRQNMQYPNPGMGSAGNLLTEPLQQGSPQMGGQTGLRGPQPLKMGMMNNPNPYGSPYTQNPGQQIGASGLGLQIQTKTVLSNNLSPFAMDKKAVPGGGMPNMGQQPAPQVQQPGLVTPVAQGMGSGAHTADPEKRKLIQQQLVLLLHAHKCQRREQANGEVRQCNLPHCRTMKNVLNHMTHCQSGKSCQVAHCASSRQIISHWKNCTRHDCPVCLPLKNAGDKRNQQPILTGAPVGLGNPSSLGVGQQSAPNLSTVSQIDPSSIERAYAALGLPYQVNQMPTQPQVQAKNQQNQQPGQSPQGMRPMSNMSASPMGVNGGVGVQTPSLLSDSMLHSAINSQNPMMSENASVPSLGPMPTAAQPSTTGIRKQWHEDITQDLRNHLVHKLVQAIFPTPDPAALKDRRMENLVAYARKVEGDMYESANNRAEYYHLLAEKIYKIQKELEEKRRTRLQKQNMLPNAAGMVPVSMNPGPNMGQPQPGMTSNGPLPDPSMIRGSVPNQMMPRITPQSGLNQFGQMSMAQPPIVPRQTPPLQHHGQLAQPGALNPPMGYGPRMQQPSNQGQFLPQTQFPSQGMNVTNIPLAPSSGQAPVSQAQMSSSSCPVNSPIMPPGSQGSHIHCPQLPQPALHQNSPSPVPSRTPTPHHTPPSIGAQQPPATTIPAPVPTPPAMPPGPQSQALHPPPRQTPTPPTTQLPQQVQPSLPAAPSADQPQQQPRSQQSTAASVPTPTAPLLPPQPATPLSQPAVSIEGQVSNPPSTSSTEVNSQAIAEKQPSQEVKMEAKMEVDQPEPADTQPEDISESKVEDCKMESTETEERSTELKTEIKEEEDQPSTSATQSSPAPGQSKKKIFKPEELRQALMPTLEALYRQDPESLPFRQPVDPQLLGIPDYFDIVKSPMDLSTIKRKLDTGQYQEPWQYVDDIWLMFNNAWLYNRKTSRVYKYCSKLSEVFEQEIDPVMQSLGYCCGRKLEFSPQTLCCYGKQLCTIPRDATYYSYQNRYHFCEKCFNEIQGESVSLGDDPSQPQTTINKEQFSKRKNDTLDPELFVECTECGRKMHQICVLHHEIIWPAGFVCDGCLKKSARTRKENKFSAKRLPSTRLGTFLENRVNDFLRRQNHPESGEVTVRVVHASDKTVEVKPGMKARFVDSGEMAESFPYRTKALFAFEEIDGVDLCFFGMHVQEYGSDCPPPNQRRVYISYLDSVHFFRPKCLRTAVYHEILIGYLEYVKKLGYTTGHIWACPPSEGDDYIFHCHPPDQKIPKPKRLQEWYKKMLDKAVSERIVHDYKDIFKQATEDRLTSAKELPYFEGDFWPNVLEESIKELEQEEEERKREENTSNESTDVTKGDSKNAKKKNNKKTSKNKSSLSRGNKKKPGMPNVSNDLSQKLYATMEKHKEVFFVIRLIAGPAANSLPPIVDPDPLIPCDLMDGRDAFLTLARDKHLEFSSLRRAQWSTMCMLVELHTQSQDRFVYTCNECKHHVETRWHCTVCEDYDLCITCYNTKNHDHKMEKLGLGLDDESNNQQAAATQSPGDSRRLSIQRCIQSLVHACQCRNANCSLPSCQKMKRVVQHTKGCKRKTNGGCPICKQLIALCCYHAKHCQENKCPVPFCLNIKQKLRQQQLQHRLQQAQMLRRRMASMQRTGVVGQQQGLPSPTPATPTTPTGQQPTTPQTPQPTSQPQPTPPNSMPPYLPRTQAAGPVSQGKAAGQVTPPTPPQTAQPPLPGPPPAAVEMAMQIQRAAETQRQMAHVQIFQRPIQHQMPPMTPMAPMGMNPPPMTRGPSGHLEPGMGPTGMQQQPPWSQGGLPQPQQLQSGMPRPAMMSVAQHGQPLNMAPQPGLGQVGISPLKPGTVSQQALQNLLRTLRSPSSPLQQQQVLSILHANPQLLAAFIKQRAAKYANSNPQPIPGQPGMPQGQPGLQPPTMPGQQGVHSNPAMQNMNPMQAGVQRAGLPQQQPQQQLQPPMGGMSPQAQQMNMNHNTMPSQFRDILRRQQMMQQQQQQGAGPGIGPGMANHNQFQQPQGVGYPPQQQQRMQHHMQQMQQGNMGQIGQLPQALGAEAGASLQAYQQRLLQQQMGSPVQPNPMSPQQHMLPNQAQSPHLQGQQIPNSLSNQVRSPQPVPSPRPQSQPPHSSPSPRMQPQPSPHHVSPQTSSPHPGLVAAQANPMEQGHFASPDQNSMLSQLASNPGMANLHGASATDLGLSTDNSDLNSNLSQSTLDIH

R value (DMSO/fragment) ([1]; 500 μM, invitro, ramos): 12.7
Structure (SMILES): COc1ccc2c(c1)CCCN2C(=O)CCl [compound 2]

R value (DMSO/fragment) ([2]; 500 μM, invitro, ramos): 7.4
Structure (SMILES): O=C(CCl)Nc1cc(C(F)(F)F)cc(C(F)(F)F)c1 [compound 3]

isoTOP-ABPP ratio, Q09472_C1738 ([1]; 500 μM, invitro, ramos): 0.7 | isoTOP-ABPP ratio O14933_C98 [4]: 1.0
Structure (SMILES): O=C(CCl)NCCc1c[nH]c2ccccc12 [compound 13]

isoTOP-ABPP ratio (reactivity profile), P42575_C370 ([2]; 500 μm in-vitro ramos): 2.1 | isoTOP-ABPP ratio (reactivity profile), P41226_C599 ([3]; 500 μm in-vitro ramos): 3.2 | isoTOP-ABPP ratio (reactivity profile), O114933_C98 ([5]; 500 μm in-vitro ramos): 1.2 | isoTOP-ABPP ratio (reactivity profile), O114933_C98 ([5]; 500 μm in-vitro ramos_231): 0.7
Structure (SMILES): N#C/C(=C\c1cc(C(F)(F)F)cc(C(F)(F)F)c1)C(N)=O [compound 23]

isoTOP-ABPP ratio (reactivity profile), P42575_C370 ([2]; 500 μm in-vitro ramos): 2.2
Structure (SMILES): CC(Br)C(=O)Nc1cc(C(F)(F)F)cc(C(F)(F)F)c1 (stereo not drawn) [compound 24]

isoTOP-ABPP ratio (reactivity profile), Q09472_C1738 ([1]; 500 μm in-vitro ramos_231): 1.6
Structure (SMILES): CC(Cl)C(=O)Nc1cc(C(F)(F)F)cc(C(F)(F)F)c1 (stereo not drawn) [compound 25]

isoTOP-ABPP ratio (reactivity profile), O114933_C98 ([5]; 500 μm in-vitro ramos): 1.0
Structure (SMILES): O=C(/C=C/c1ccccc1)Nc1cc(C(F)(F)F)cc(C(F)(F)F)c1 [compound 26]

isoTOP-ABPP ratio Q8N999_C302 [6]: 0.6 | isoTOP-ABPP ratio (reactivity profile), O114933_C98 ([5]; 500 μm in-vitro ramos): 1.2
Structure (SMILES): COc1ccccc1OCCNC(=O)CCl [compound 28]

isoTOP-ABPP reactivity ratio, P42575_C370 [2]: 4.1 | isoTOP-ABPP ratio (reactivity profile), O114933_C98 ([5]; 500 μm in-vitro ramos): 1.3
Structure (SMILES): CCN(CC)c1ccc(S(N)(=O)=O)cc1NC(=O)CCl [compound 30]

isoTOP-ABPP reactivity ratio, P41226_C599 ([3]; 500 μm, in-vitro_ramos): 1.2 | isoTOP-ABPP reactivity ratio, O00541_C272 ([7]; in-vitro_ramos): 1.2 | isoTOP-ABPP reactivity ratio, O00541_C272 ([7]; in-vitro_ramos_231): 0.8
Structure (SMILES): O=C(CCl)Nc1ccccc1C1CCCCCC1 [compound 35]

isoTOP-ABPP reactivity profile ratio, Q09472_C1738 [1]: 2.2
Structure (SMILES): COc1cc(NC(=O)CCl)cc(OC)c1 [compound 43]

isoTOP-ABPP reactivity profile ratio, Q09472_C1738 [1]: 1.1
Structure (SMILES): O=C(CCl)Nc1ccc(-c2ccccc2)cc1 [compound 52]

Further lines, the compound ahead of its results:

Structure (SMILES): COc1ccc(C2CC(c3cccs3)=NN2C(=O)CCl)cc1 (stereo not drawn) [compound 4]
R value (DMSO/fragment) ([3]; 250 μM, in vitro, Ramos): 20.0

Structure (SMILES): C=CC(=O)N(c1ccccc1)c1ccc(Br)cc1 [compound 5]
isoTOP-ABPP ratio, Q09472_C1738 ([1]; 500 μM, invitro, ramos): 20.0

Structure (SMILES): O=C(CCl)N1CCN(S(=O)(=O)c2ccccc2F)CC1 [compound 10]
isoTOP-ABPP ratio, P42575_C370 ([2]; 500 μM, invitro, ramos): 1.2

Structure (SMILES): Cn1cc(S(=O)(=O)N2CCOCC2)cc1C(=O)NC(=O)CCl [compound 11]
isoTOP-ABPP ratio, P42575_C370 ([2]; 500 μM, invitro, ramos): 6.0 | isoTOP-ABPP ratio, P41226_C599 ([3]; 500 μM, invitro, ramos): 1.9 | isoTOP-ABPP ratio O14933_C98 [4]: 3.4

Structure (SMILES): O=C(CCl)NC(=O)NC12CC3CC(CC(C3)C1)C2 [compound 12]
isoTOP-ABPP ratio O14933_C98 [4]: 1.3

Structure (SMILES): C=CC(=O)N(Cc1cccnc1)c1ccc(Oc2ccccc2)c(C(F)(F)F)c1 [compound 15]
isoTOP-ABPP ratio (reactivity profile), O114933_C98 ([5]; 500 μm in-vitro ramos): 1.3

Structure (SMILES): O=C(CCl)N1CCC(C(O)(c2ccccc2)c2ccccc2)CC1 [compound 20]
isoTOP-ABPP ratio (reactivity profile), Q09472_C1738 ([1]; 500 μm in-vitro ramos): 3.2 | isoTOP-ABPP ratio (reactivity profile), P41226_C599 ([3]; 500 μm in-vitro ramos): 12.2 | isoTOP-ABPP ratio (reactivity profile), P41226_C599 ([3]; 500 μm in-vitro ramos_231): 1.1 | isoTOP-ABPP ratio (reactivity profile), O114933_C98 ([5]; 500 μm in-vitro ramos): 3.9

Structure (SMILES): O=C(CCl)NC12CC3CC(CC(C3)C1)C2 [compound 21]
isoTOP-ABPP ratio (reactivity profile), P41226_C599 ([3]; 500 μm in-vitro ramos): 2.5

Structure (SMILES): O=C(CCl)N1CCOCC1 [compound 22]
isoTOP-ABPP ratio (reactivity profile), O114933_C98 ([5]; 500 μm in-vitro ramos): 2.0

Structure (SMILES): CC(C)CCOCCNC(=O)CCl [compound 27]
isoTOP-ABPP ratio (reactivity profile), P42575_C370 ([2]; 500 μm in-vitro ramos_231): 0.9 | isoTOP-ABPP ratio (reactivity profile), Q09472_C1738 ([1]; 500 μm in-vitro ramos_231): 1.0 | isoTOP-ABPP ratio (reactivity profile), P41226_C599 ([3]; 500 μm in-vitro ramos): 1.3 | isoTOP-ABPP ratio (reactivity profile), P41226_C599 ([3]; 500 μm in-vitro ramos_231): 0.7 | isoTOP-ABPP ratio (reactivity profile), O114933_C98 ([5]; 500 μm in-vitro ramos): 1.0 | isoTOP-ABPP ratio (reactivity profile), O114933_C98 ([5]; 500 μm in-vitro ramos_231): 1.2

Structure (SMILES): O=C(CCl)N1CCN(CC(=O)N2CCOCC2)CC1 [compound 29]
isoTOP-ABPP ratio (reactivity profile), Q09472_C1738 ([1]; 500 μm in-vitro ramos_231): 1.3

Structure (SMILES): C=CC(=O)N1CCC(c2noc3ccc(F)cc23)CC1 [compound 37]
isoTOP-ABPP reactivity ratio, P42575_C370 [2]: 0.7 | isoTOP-ABPP reactivity ratio, O00541_C272 ([7]; in-vitro_ramos): 1.0

Structure (SMILES): C=CC(=O)Nc1cc(F)c(N2CCN(C(=O)OC(C)(C)C)CC2)c(F)c1 [compound 38]
isoTOP-ABPP reactivity ratio, O00541_C272 ([7]; in-vitro_ramos_231): 1.0

Structure (SMILES): C=CC(=O)Nc1cc(C)c(Br)cc1C [compound 40]
isoTOP-ABPP reactivity ratio, P42575_C370 [2]: 2.7

Structure (SMILES): Cc1ccc(C=C(C#N)C(=O)NCCN2CCOCC2)cc1 [compound 41]
isoTOP-ABPP ratio Q8N999_C302 [6]: 0.3 | isoTOP-ABPP reactivity ratio, P42575_C370 [2]: 1.4

Structure (SMILES): CC1CCc2ccccc2N1C(=O)CCl (stereo not drawn) [compound 45]
isoTOP-ABPP ratio Q8N999_C302 [6]: 20.0
